The source of these data is publication PMC2099433, “The binding site for neohesperidin dihydrochalcone at the human sweet taste receptor” (BMC Structural Biology, 2007).

Positions count from the first letter of the chain named. Where a SMILES comes first, the peptide text is derived from it.

The target of assay [1] is T1, hTAS1R2 + hTAS1R3 F730L^5.43 (Homo sapiens, UniProt Q7RTX0+Q8TE23, F730L).
T1 construct: expressed in transfected cells; host or cells: HEK293T cells stably expressing G16Gust44
T1 sequence (Q8TE23 20-839): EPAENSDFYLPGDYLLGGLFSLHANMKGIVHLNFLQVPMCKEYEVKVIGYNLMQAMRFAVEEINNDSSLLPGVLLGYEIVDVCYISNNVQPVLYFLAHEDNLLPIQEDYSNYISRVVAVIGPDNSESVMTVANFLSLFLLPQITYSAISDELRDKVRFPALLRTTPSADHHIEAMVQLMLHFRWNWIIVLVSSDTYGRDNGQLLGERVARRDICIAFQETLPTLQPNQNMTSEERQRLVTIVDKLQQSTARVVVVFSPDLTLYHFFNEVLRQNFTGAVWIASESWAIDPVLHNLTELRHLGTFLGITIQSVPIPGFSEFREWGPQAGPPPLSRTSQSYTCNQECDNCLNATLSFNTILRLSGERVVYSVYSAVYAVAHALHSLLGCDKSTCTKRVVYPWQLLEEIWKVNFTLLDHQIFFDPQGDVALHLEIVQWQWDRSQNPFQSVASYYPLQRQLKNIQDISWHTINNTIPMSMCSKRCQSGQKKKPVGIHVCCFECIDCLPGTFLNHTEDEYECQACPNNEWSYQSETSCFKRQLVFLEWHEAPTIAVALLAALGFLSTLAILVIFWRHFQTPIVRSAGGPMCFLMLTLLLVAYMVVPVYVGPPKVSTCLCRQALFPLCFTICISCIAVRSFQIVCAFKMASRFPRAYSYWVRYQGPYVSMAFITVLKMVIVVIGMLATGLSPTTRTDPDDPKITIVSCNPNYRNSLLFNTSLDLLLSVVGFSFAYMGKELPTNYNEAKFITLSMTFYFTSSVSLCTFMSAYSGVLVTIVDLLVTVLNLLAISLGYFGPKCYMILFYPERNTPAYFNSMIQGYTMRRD
T1 sequence (Q7RTX0 21-852 F730L): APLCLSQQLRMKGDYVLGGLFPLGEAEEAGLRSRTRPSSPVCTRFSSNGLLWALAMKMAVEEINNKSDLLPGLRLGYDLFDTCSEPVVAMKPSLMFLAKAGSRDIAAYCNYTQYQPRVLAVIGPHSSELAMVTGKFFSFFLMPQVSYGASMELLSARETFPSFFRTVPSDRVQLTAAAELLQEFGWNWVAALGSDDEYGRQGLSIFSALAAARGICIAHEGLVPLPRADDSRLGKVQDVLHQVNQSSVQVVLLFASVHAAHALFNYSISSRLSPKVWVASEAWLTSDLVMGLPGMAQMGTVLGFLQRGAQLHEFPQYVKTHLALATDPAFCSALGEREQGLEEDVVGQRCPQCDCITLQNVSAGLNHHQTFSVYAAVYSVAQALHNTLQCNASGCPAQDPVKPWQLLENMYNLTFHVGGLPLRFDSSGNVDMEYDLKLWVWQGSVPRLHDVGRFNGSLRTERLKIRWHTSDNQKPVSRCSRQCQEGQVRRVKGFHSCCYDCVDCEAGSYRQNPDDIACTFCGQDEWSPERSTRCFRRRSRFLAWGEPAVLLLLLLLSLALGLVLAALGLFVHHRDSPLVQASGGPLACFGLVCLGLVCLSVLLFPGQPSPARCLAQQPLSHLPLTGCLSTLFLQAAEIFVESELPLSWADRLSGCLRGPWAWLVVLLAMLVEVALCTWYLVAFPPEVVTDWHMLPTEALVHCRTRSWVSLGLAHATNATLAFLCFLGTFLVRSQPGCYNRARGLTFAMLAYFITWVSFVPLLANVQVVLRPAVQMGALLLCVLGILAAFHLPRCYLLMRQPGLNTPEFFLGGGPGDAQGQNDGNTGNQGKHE
Briefly: Calcium response (FLIPR), hTAS1R3 mutant coexpressed with hTAS1R2. In kind it is cell-based. Particulars: variant F730L^5.43; for Emax: read-out: maximal signal (% of wt). In short, it runs like this:
(§1)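 Each mutant receptor pair was expressed transiently in G16Gust44-expressing HEK293T cells; stimuli dissolved in C1 solution triggered calcium responses, recorded by fluorometric imaging and scaled to baseline fluorescence (ΔF/F) after mock correction, from at least three experiments run in duplicate.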

The target in assay [2] is T2, hTAS1R2 + hTAS1R3 V779A^6.52 (Homo sapiens, UniProt Q7RTX0+Q8TE23, V779A).
T2 construct: expressed in transfected cells; host or cells: HEK293T cells stably expressing G16Gust44
T2 sequence (Q8TE23 20-839): T1 sequence (Q8TE23 20-839)
T2 sequence (Q7RTX0 21-852 V779A): T1 sequence (Q7RTX0 21-852 F730L) with L710F, V759A
The assay is described as above. In kind it is cell-based. Particulars: variant V779A^6.52; for Emax: read-out: maximal signal (% of wt). In short, it runs like this: as §1

For orientation: EC50 means the concentration giving half of the maximal effect.

`COc1ccc(CCC(=O)c2c(O)cc(O[C@@H]3O[C@H](CO)[C@@H](O)[C@H](O)[C@H]3O[C@@H]3O[C@@H](C)[C@H](O)[C@@H](O)[C@H]3O)cc2O)cc1O` [NHDC, neohesperidin dihydrochalcone]: in assay [1], the EC50 worked out at 900 ± 100 µM and the Emax amounted to 70 ± 18%. In assay [2], the EC50 amounted to 200 ± 100 µM and the Emax is 88 ± 14%.

`COC(=O)[C@H](Cc1ccccc1)NC(=O)[C@@H](N)CC(=O)O` [aspartame] (HELM PEPTIDE1{D.F.[CO[*:1]]}$$$$V2.0): in assay [1], the EC50 was 1700 ± 400 µM and the Emax is 87 ± 27%. Also, in assay [2], the EC50 turned out to be 1200 ± 300 µM and the Emax turned out to be 52 ± 10%.
